Columns and labels:
C4-2B = assay: Cell line inhibition analysis (CCK-8, 72 h); format: cell-based; conditions: read-out: Cell growth inhibition GI50 C4-2B
Description: C4-2B and 22Rv1 cells were purchased from ATCC and cultured according to the manufacturer's instructions. The cells were seeded in 96-well plates at 7×10^3cells/100 µl/well and allowed to attach for one day. After removing the culture medium, 90 µl/well of fresh culture medium was added, followed by addition of 10 µl/well of culture medium containing compounds at nine concentrations (0.076-500 µM) serially diluted 3-fold and DMSO control to achieve final concentrations of 0-50 µM, and then cultured for 72 hours in a 37 °C CO2 incubator. Cell proliferation after 72 hours was assessed by adding 10 µl/well of CCK-8 solution, orbital shaking for 30 seconds, then incubating at 37 °C CO2 incubator for 2 hours and measuring absorbance at 450 nm using a microplate reader. The measured absorbance values were corrected by subtracting the absorbance of wells containing only culture medium and CCK-8 solution, and GI50 values were calculated using GraphPad Prism 8 software.
Meanwhile, in a separate 96-well plate, cells were seeded at 7 × 10^3 cells/100 µl/well, allowed to attach for one day, CCK-8 solution was added, and absorbance was measured to establish the 'Growth (%) = 0' value.

ACK1 = molecular target: T1, ACK1 (Homo sapiens, UniProt Q07912); assay: Enzyme activity inhibition (Reaction Biology); format: biochemical
T1 construct: purchased Reaction Biology (RBC)
Description: [* <10 nM: A, <100 nM: B, >100 nM: C]. [Table 7]

T1 sequence (Q07912 whole entry): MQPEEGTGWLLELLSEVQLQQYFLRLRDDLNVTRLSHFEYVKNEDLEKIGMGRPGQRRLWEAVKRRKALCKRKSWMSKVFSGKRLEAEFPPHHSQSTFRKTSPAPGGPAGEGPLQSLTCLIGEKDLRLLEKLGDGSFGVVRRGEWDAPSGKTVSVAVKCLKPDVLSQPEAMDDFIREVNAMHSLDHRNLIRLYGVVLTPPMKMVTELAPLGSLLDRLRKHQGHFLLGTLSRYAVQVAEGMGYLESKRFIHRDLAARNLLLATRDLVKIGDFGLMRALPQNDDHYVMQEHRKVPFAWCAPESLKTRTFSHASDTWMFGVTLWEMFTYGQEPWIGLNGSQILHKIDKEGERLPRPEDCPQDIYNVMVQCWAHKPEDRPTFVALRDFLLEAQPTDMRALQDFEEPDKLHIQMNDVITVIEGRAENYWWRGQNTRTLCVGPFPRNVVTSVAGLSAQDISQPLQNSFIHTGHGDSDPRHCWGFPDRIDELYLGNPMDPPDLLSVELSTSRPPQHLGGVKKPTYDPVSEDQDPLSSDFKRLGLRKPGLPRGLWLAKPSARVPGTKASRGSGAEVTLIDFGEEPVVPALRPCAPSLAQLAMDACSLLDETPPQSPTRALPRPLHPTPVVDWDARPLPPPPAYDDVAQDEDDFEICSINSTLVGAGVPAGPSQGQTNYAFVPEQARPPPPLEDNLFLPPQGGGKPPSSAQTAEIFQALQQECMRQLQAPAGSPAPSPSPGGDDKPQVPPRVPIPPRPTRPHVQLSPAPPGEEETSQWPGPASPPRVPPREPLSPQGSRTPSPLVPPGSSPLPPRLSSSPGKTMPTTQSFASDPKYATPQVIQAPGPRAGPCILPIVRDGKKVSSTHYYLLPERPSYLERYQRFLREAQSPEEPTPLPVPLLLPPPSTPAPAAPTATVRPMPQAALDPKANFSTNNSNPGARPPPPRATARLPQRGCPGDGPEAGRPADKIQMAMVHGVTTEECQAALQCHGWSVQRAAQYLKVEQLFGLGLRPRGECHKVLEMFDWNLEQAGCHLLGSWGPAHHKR

| Structure (SMILES) | GI50 (C4-2B) [µM] | IC50 (ACK1) [µM] |
| --- | --- | --- |
| Cc1ccc(NC(=O)c2cc(F)cc(C(F)(F)F)c2)cc1N1Cc2cnc(NC3CC3)nc2C2(CC2)C1=O [Compound 27, N-(3-(2'-(cyclopropylamino)-7'-oxo-5'H-spiro[cyclopropane-1,8'-pyrido[4,3-d]pyrimidine]-6'(7'H)-yl)-4-methylphenyl)-3-fluoro-5-(trifluoromethyl)benzamide] | 5 to 10 | – |
| Cc1ccc(NC(=O)c2cc(N(C)CCN(C)C)cc(C(F)(F)F)c2)cc1N1Cc2cnc(N)nc2C2(CC2)C1=O [Compound 37, N-(3-(2'-amino-7'-oxo-5'H-spiro[cyclopropane-1,8'-pyrido[4,3-d]pyrimidine]-6'(7'H)-yl)-4-methylphenyl)-3-((2-(dimethylamino)ethyl)(methyl)amino)-5-(trifluoromethyl)benzamide] | > 10 | – |
| Cc1ccc(NC(=O)c2cc(N3CCNCC3)cc(C(F)(F)F)c2)cc1N1Cc2cnc(NC3CC3)nc2C2(CC2)C1=O [Compound 35, N-(3-(2'-(cyclopropylamino)-7'-oxo-5'H-spiro[cyclopropane-1,8'-pyrido[4,3-d]pyrimidine]-6'(7'H)-yl)-4-methylphenyl)-3-(piperazin-1-yl)-5-(trifluoromethyl)benzamide] | 5 to 10 | – |
| Cc1ccc(NC(=O)c2cc(C(F)(F)F)ccc2F)cc1N1Cc2cnc(N)nc2C2(CC2)C1=O [Compound 18, N-(3-(2'-amino-7'-oxo-5'H-spiro[cyclopropane-1,8'-pyrido[4,3-d]pyrimidine]-6'(7'H)-yl)-4-methylphenyl)-2-fluoro-5-(trifluoromethyl)benzamide] | > 10 | – |
| Cc1ccc(NC(=O)c2ccc(F)c(F)c2)cc1N1Cc2cnc(N)nc2C2(CC2)C1=O [Compound 9, N-(3-(2'-amino-7'-oxo-5'H-spiro[cyclopropane-1,8'-pyrido[4,3-d]pyrimidine]-6'(7'H)-yl)-4-methylphenyl)-3,4-difluorobenzamide] | > 10 | – |
| COc1cccc(C(=O)Nc2ccc(C)c(N3Cc4cnc(N)nc4C4(CC4)C3=O)c2)c1 [Compound 16, N-(3-(2'-amino-7'-oxo-5'H-spiro[cyclopropane-1,8'-pyrido[4,3-d]pyrimidine]-6'(7'H)-yl)-4-methylphenyl)-3-methoxybenzamide] | > 10 | – |
| Cc1ccc(NC(=O)c2cc(N3CCN(C)CC3)cc(C(F)(F)F)c2)cc1N1Cc2cnc(N)nc2C2(CC2)C1=O [Compound 33, N-(3-(2'-amino-7'-oxo-5'H-spiro[cyclopropane-1,8'-pyrido[4,3-d]pyrimidine]-6'(7'H)-yl)-4-methylphenyl)-3-(4-methylpiperazin-1-yl)-5-(trifluoromethyl)benzamide] | 5 to 10 | – |
| Cc1ccc(NC(=O)c2cccc(C(F)(F)F)n2)cc1N1Cc2cnc(N)nc2C2(CC2)C1=O [Compound 21, N-(3-(2'-amino-7'-oxo-5'H-spiro[cyclopropane-1,8'-pyrido[4,3-d]pyrimidine]-6'(7'H)-yl)-4-methylphenyl)-6-(trifluoromethyl)picolinamide] | > 10 | – |
| Cc1ccc(NC(=O)c2ccnc(C(F)(F)F)c2)cc1N1Cc2cnc(N)nc2C2(CC2)C1=O [Compound 22, N-(3-(2'-amino-7'-oxo-5'H-spiro[cyclopropane-1,8'-pyrido[4,3-d]pyrimidine]-6'(7'H)-yl)-4-methylphenyl)-2-(trifluoromethyl)isonicotinamide] | > 10 | – |
| Cc1ccc(NC(=O)c2cc(Br)cc(C(F)(F)F)c2)cc1N1Cc2cnc(NC3CC3)nc2C2(CC2)C1=O [Compound 13, 3-bromo-N-(3-(2'-(cyclopropylamino)-7'-oxo-5'H-spiro[cyclopropane-1,8'-pyrido[4,3-d]pyrimidine]-6'(7'H)-yl)-4-methylphenyl)-5-(trifluoromethyl)benzamide] | > 10 | – |
| Cc1ccc(NC(=O)c2cc(C(F)(F)F)cc(Cl)c2F)cc1N1Cc2cnc(N)nc2C2(CC2)C1=O [Compound 17, N-(3-(2'-amino-7'-oxo-5'H-spiro[cyclopropane-1,8'-pyrido[4,3-d]pyrimidine]-6'(7'H)-yl)-4-methylphenyl)-3-chloro-2-fluoro-5-(trifluoromethyl)benzamide] | > 10 | – |
| Cc1ccc(NC(=O)c2ccc(C)c(C(F)(F)F)c2)cc1N1Cc2cnc(NC3CC3)nc2C2(CC2)C1=O [Compound 12, N-(3-(2'-(cyclopropylamino)-7'-oxo-5'H-spiro[cyclopropane-1,8'-pyrido[4,3-d]pyrimidine]-6'(7'H)-yl)-4-methylphenyl)-4-methyl-3-(trifluoromethyl)benzamide] | 1 to 5 | – |
| Cc1ccc(NC(=O)c2cc(N(C)CCN(C)C)cc(C(F)(F)F)c2)cc1N1Cc2cnc(NC3CC3)nc2C2(CC2)C1=O [Compound 36, N-(3-(2'-(cyclopropylamino)-7'-oxo-5'H-spiro[cyclopropane-1,8'-pyrido[4,3-d]pyrimidine]-6'(7'H)-yl)-4-methylphenyl)-3-((2-(dimethylamino)ethyl)(methyl)amino)-5-(trifluoromethyl)benzamide] | 5 to 10 | – |
| Cc1ccc(NC(=O)c2cc(F)cc(F)c2)cc1N1Cc2cnc(N)nc2C2(CC2)C1=O [Compound 15, N-(3-(2'-amino-7'-oxo-5'H-spiro[cyclopropane-1,8'-pyrido[4,3-d]pyrimidine]-6'(7'H)-yl)-4-methylphenyl)-3,5-difluorobenzamide] | 5 to 10 | – |
| Cc1ccc(NC(=O)c2cc(N3CCN(C)CC3)cc(C(F)(F)F)c2)cc1N1Cc2cnc(NC3CC3)nc2C2(CC2)C1=O [Compound 32, N-(3-(2'-(cyclopropylamino)-7'-oxo-5'H-spiro[cyclopropane-1,8'-pyrido[4,3-d]pyrimidine]-6'(7'H)-yl)-4-methylphenyl)-3-(4-methylpiperazin-1-yl)-5-(trifluoromethyl)benzamide] | 1 to 5 | – |
| COCCN(C)c1cc(C(=O)Nc2ccc(C)c(N3Cc4cnc(NC5CC5)nc4C4(CC4)C3=O)c2)cc(C(F)(F)F)c1 [Compound 30, N-(3-(2'-(cyclopropylamino)-7'-oxo-5'H-spiro[cyclopropane-1,8'-pyrido[4,3-d]pyrimidine]-6'(7'H)-yl)-4-methylphenyl)-3-((2-methoxyethyl)(methyl)amino)-5-(trifluoromethyl)benzamide] | 1 to 5 | – |
| Cc1ccc(NC(=O)c2ccc(F)c(F)c2)cc1N1Cc2cnc(NC3CC3)nc2C2(CC2)C1=O [Compound 10, N-(3-(2'-(cyclopropylamino)-7'-oxo-5'H-spiro[cyclopropane-1,8'-pyrido[4,3-d]pyrimidine]-6'(7'H)-yl)-4-methylphenyl)-3,4-difluorobenzamide] | > 10 | – |
| Cc1ccc(NC(=O)c2ccc(F)cc2F)cc1N1Cc2cnc(N)nc2C2(CC2)C1=O [Compound 14, N-(3-(2'-amino-7'-oxo-5'H-spiro[cyclopropane-1,8'-pyrido[4,3-d]pyrimidine]-6'(7'H)-yl)-4-methylphenyl)-2,4-difluorobenzamide] | > 10 | – |
| Cc1ccc(NC(=O)c2cc(F)cc(F)c2)cc1N1Cc2cnc(NC3CC3)nc2C2(CC2)C1=O [Compound 11, N-(3-(2'-(cyclopropylamino)-7'-oxo-5'H-spiro[cyclopropane-1,8'-pyrido[4,3-d]pyrimidine]-6'(7'H)-yl)-4-methylphenyl)-3,5-difluorobenzamide] | > 10 | – |
| Cc1ccc(NC(=O)c2cc(O)cc(C(F)(F)F)c2)cc1N1Cc2cnc(N)nc2C2(CC2)C1=O [Compound 23, N-(3-(2'-amino-7'-oxo-5'H-spiro[cyclopropane-1,8'-pyrido[4,3-d]pyrimidine]-6'(7'H)-yl)-4-methylphenyl)-3-hydroxy-5-(trifluoromethyl)benzamide] | 5 to 10 | – |
| Cc1ccc(NC(=O)c2cccc(C(F)(F)F)c2)cc1N1Cc2cnc(NO)nc2C2(CC2)C1=O [Compound 70, N-(3-(2'-(hydroxyamino)-7'-oxo-5'H-spiro[cyclopropane-1,8'-pyrido[4,3-d]pyrimidine]-6'(7'H)-yl)-4-methylphenyl)-3-(trifluoromethyl)benzamide] | – | 0.01 to 0.1 |
| Cc1ccc(NC(=O)c2cc(N3CCNCC3)cc(C(F)(F)F)c2)cc1N1Cc2cnc(N)nc2C2(CC2)C1=O [Compound 34, N-(3-(2'-amino-7'-oxo-5'H-spiro[cyclopropane-1,8'-pyrido[4,3-d]pyrimidine]-6'(7'H)-yl)-4-methylphenyl)-3-(piperazin-1-yl)-5-(trifluoromethyl)benzamide] | 5 to 10 | – |

From patent publication EP4722212A1, “NOVEL COMPOUND FOR INHIBITING PROTEIN KINASES AND PHARMACEUTICAL COMPOSITION COMPRISING SAME” (Magicbullettherapeutics Co., Ltd., priority 2023, dated 2024)
